Columns and labels:
[1] = target: human Gal-1 (hGal-1); assay: Competitive binding assay: binding of biotinylated hGal-1 to microplate-adsorbed asialofetuin (ASF); settings: Activities on hGal-1; mean values of several measurements
In short: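 For hGal-1, a variant with all six cysteines replaced by serines is preferred. Either galectin, biotinylated at 300-1000 ng/mL, competes with compound for microplate-bound ASF over 3 h at 4° C; peroxidase/ABTS detection gives IC50, averaged.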

[2] = target: human Gal-3 (hGal-3) (Homo sapiens (Human), UniProt P17931); assay: Competitive binding assay: binding of biotinylated hGal-3 to microplate-adsorbed asialofetuin (ASF); settings: Activity on hGal-3; mean values of several measurements
human Gal-3 (hGal-3), sequence (P17931 whole entry): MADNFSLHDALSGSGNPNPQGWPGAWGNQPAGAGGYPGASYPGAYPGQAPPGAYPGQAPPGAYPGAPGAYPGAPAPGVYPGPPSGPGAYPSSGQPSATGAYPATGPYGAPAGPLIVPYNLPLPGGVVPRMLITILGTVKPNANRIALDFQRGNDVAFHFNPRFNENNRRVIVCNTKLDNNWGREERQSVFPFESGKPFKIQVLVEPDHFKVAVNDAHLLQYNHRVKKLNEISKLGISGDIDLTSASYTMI
In short: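 Spectrophotometric readout (streptavidin-peroxidase, ABTS) of biotinylated galectin retained on ASF-coated wells. Biotinylated hGal-1 or hGal-3, 300-1000 ng/mL, co-incubated with test compound 3 h at 4° C, then washed. Mean IC50 from repeat runs.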

human Gal-1 (hGal-1), sequence (P09382 2-135 limits assumed): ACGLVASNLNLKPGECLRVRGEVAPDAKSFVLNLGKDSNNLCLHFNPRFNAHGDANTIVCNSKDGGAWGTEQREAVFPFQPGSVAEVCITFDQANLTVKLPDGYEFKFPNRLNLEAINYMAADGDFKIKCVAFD

Structure (SMILES) | IC50 [1] [µM] | IC50 [2] [µM]
CO[C@@H]1[C@@H](n2cc(-c3ccc(Cl)c(F)c3F)nn2)[C@@H](O)[C@@H](CO)O[C@@H]1Cc1cc(C2(C)COC2)no1 [Ex 1.260] | 1.41 | 0.063
CO[C@@H]1[C@@H](n2cc(-c3ccc(Cl)c(F)c3F)nn2)[C@@H](O)[C@@H](CO)O[C@@H]1Cc1cc(C(C)(C)CO)no1 [Ex 1.261] | 1.05 | 0.042
CO[C@@H]1[C@@H](n2cc(-c3ccc(F)c(F)c3F)nn2)[C@@H](O)[C@@H](CO)O[C@@H]1Cc1cc(C(C)(CO)CCl)no1 (stereo partly shown) [Ex 1.262] | 0.33 | 0.07
CO[C@@H]1[C@@H](n2cc(-c3ccc(C)c(F)c3F)nn2)[C@@H](O)[C@@H](CO)O[C@@H]1Cc1cc(C(C)(CO)CCl)no1 (stereo partly shown) [Ex 1.263] | 1.03 | 0.058
CO[C@@H]1[C@@H](n2cc(-c3ccc(Cl)c(F)c3F)nn2)[C@@H](O)[C@@H](CO)O[C@@H]1Cc1cc(C(C)(CO)CCl)no1 (stereo partly shown) [Ex 1.264] | 1.61 | 0.071
CO[C@@H]1[C@@H](n2cc(-c3cc(F)c(F)c(F)c3)nn2)[C@@H](O)[C@@H](CO)O[C@@H]1CC1CC(C(C)(C)C)=NO1 (stereo partly shown) [Ex 1.265] | 2.58 | 0.25
CO[C@@H]1[C@@H](n2cc(-c3ccc(Cl)c(F)c3F)nn2)[C@@H](O)[C@@H](CO)O[C@@H]1CC1CC(C(C)(C)C)=NO1 (stereo partly shown) [Ex 1.266] | 1.56 | 0.091
CO[C@@H]1[C@@H](n2cc(-c3ccc(C#N)c(F)c3F)nn2)[C@@H](O)[C@@H](CO)O[C@@H]1Cc1cc(C(C)(C)C)on1 [Ex 1.267] | 6.1 | 0.16
CO[C@@H]1[C@@H](n2cc(-c3cc(F)c(F)c(F)c3)nn2)[C@@H](O)[C@@H](CO)O[C@@H]1Cc1cc(C2(C)CCOCC2)on1 [Ex 1.268] | 2.49 | 0.11
CO[C@@H]1[C@@H](n2cc(-c3ccc(F)c(F)c3F)nn2)[C@@H](O)[C@@H](CO)O[C@@H]1Cc1cc(C2(C)CCOCC2)on1 [Ex 1.269] | 0.9 | 0.049
CO[C@@H]1[C@@H](n2cc(-c3ccc(C)c(F)c3F)nn2)[C@@H](O)[C@@H](CO)O[C@@H]1Cc1cc(C2(C)CCOCC2)on1 [Ex 1.270] | 3.55 | 0.038
CO[C@@H]1[C@@H](n2cc(-c3ccc(Cl)c(F)c3F)nn2)[C@@H](O)[C@@H](CO)O[C@@H]1Cc1cc(C2(C)CCOCC2)on1 [Ex 1.271] | 1.66 | 0.049
CO[C@@H]1[C@@H](n2cc(-c3cc(F)c(F)c(F)c3)nn2)[C@@H](O)[C@@H](CO)O[C@@H]1Cc1cc(C2(C)CCCC2)on1 [Ex 1.272] | 3.49 | 0.25
CO[C@@H]1[C@@H](n2cc(-c3ccc(F)c(F)c3F)nn2)[C@@H](O)[C@@H](CO)O[C@@H]1Cc1cc(C2(C)CCCC2)on1 [Ex 1.273] | 0.72 | 0.066
CO[C@@H]1[C@@H](n2cc(-c3ccc(C)c(F)c3F)nn2)[C@@H](O)[C@@H](CO)O[C@@H]1Cc1cc(C2(C)CCCC2)on1 [Ex 1.274] | 5.54 | 0.11
CO[C@@H]1[C@@H](n2cc(-c3ccc(Cl)c(F)c3F)nn2)[C@@H](O)[C@@H](CO)O[C@@H]1Cc1cc(C2(C)CCCC2)on1 [Ex 1.275] | 3.3 | 0.11
CO[C@@H]1[C@@H](n2cc(-c3cc(F)c(F)c(F)c3)nn2)[C@@H](O)[C@@H](CO)O[C@@H]1Cc1cc(C2(C#N)CCCC2)on1 [Ex 1.276] | 5.1 | 0.097
CO[C@@H]1[C@@H](n2cc(-c3ccc(C)c(F)c3F)nn2)[C@@H](O)[C@@H](CO)O[C@@H]1Cc1cc(C2(C#N)CCCC2)on1 [Ex 1.278] | 6.7 | 0.093
CO[C@@H]1[C@@H](n2cc(-c3ccc(Cl)c(F)c3F)nn2)[C@@H](O)[C@@H](CO)O[C@@H]1CC1CC(C(C)(C)CO)=NO1 (stereo partly shown) [Ex 1.280] | 1.82 | 0.3
CO[C@@H]1[C@@H](n2cc(-c3cc(F)c(F)c(F)c3)nn2)[C@@H](O)[C@@H](CO)O[C@@H]1CC1CC(C(C)(C)CO)=NO1 (stereo partly shown) [Ex 1.281] | 2.55 | 0.53
CO[C@@H]1[C@@H](n2cc(-c3cc(F)c(F)c(F)c3)nn2)[C@@H](O)[C@@H](CO)O[C@@H]1Cc1cc(C2(C)CCOCC2)no1 [Ex 1.282] | 1.77 | 0.11
CO[C@@H]1[C@@H](n2cc(-c3ccc(F)c(F)c3F)nn2)[C@@H](O)[C@@H](CO)O[C@@H]1Cc1cc(C2(C)CCOCC2)no1 [Ex 1.283] | 0.38 | 0.049
CO[C@@H]1[C@@H](n2cc(-c3ccc(C)c(F)c3F)nn2)[C@@H](O)[C@@H](CO)O[C@@H]1Cc1cc(C2(C)CCOCC2)no1 [Ex 1.284] | 5.85 | 0.15
CO[C@@H]1[C@@H](n2cc(-c3ccc(Cl)c(F)c3F)nn2)[C@@H](O)[C@@H](CO)O[C@@H]1Cc1cc(C2(C)CCOCC2)no1 [Ex 1.285] | 1.1 | 0.051

Structure (SMILES) | IC50 [1] [µM] | IC50 [2] [µM]
CO[C@@H]1[C@@H](n2cc(-c3cc(F)c(F)c(F)c3)nn2)[C@@H](O)[C@@H](CO)O[C@@H]1Cc1cc(C2(C)CCCC2)no1 [Ex 1.286] | 3.08 | 0.23
CO[C@@H]1[C@@H](n2cc(-c3ccc(F)c(F)c3F)nn2)[C@@H](O)[C@@H](CO)O[C@@H]1Cc1cc(C2(C)CCCC2)no1 [Ex 1.287] | 0.59 | 0.069
CO[C@@H]1[C@@H](n2cc(-c3ccc(C)c(F)c3F)nn2)[C@@H](O)[C@@H](CO)O[C@@H]1Cc1cc(C2(C)CCCC2)no1 [Ex 1.288] | 5.75 | 0.063
CO[C@@H]1[C@@H](n2cc(-c3ccc(Cl)c(F)c3F)nn2)[C@@H](O)[C@@H](CO)O[C@@H]1Cc1cc(C2(C)CCCC2)no1 [Ex 1.289] | 1.77 | 0.059
CO[C@@H]1[C@@H](n2cc(-c3cc(F)c(F)c(F)c3)nn2)[C@@H](O)[C@@H](CO)O[C@@H]1Cc1cc(C2(C#N)CCCC2)no1 [Ex 1.290] | 2.12 | 0.27
CO[C@@H]1[C@@H](n2cc(-c3ccc(F)c(F)c3F)nn2)[C@@H](O)[C@@H](CO)O[C@@H]1Cc1cc(C2(C#N)CCCC2)no1 [Ex 1.291] | 0.94 | 0.14
CO[C@@H]1[C@@H](n2cc(-c3ccc(C)c(F)c3F)nn2)[C@@H](O)[C@@H](CO)O[C@@H]1Cc1cc(C2(C#N)CCCC2)no1 [Ex 1.292] | 3.54 | 0.051
CO[C@@H]1[C@@H](n2cc(-c3ccc(Cl)c(F)c3F)nn2)[C@@H](O)[C@@H](CO)O[C@@H]1Cc1cc(C2(C#N)CCCC2)no1 [Ex 1.293] | 2.92 | 0.093
COc1ccc(C2=NOC(C[C@H]3O[C@H](CO)[C@H](O)[C@H](n4cc(-c5cc(F)c(F)c(F)c5)nn4)[C@H]3OC)C2)cc1 (stereo partly shown) [Ex 1.294] | 14 | 1.54
OC[C@H]1O[C@H](CC2CC(c3cc(Cl)ccc3Cl)=NO2)[C@H](O)[C@@H](n2cc(-c3cc(F)c(F)c(F)c3)nn2)[C@H]1O (stereo partly shown) [Ex 1.295] | 17.1 | 1.8
COc1ccc(-c2cc(C[C@H]3O[C@H](CO)[C@H](O)[C@H](n4cc(-c5cc(F)c(F)c(F)c5)nn4)[C@H]3O)no2)cc1 [Ex 1.296] | 52.2 | 1.41
CC(C)(C)OC(=O)N1CCC(C2=NOC(C[C@H]3O[C@H](CO)[C@H](O)[C@H](n4cc(-c5c(F)cccc5F)nn4)[C@H]3O)C2)CC1 (stereo partly shown) [Ex 1.298] | 0.99 | 2.5
COc1cccc(-c2cn([C@H]3[C@@H](O)[C@@H](CO)O[C@H](CC4CC(C5CCN(C(=O)OC(C)(C)C)CC5)=NO4)[C@@H]3O)nn2)c1 (stereo partly shown) [Ex 1.300] | 2.27 | 1.41
CC(C)(C)OC(=O)N1CCC(C2=NOC(C[C@H]3O[C@H](CO)[C@H](O)[C@H](n4cc(-c5cccc(C(F)(F)F)c5)nn4)[C@H]3O)C2)CC1 (stereo partly shown) [Ex 1.301] | 2.89 | 2.7
CO[C@@H]1[C@@H](n2cc(-c3cc(F)c(F)c(F)c3)nn2)[C@@H](O)[C@@H](CO)O[C@@H]1Cc1cc(C(C)(C)C(F)F)no1 [Ex 1.303] | 0.55 | 0.14
CO[C@@H]1[C@@H](n2cc(-c3ccc4ccccc4c3)nn2)[C@@H](O)[C@@H](CO)O[C@@H]1CC1CC(C2CCN(C(=O)OC(C)(C)C)CC2)=NO1 (stereo partly shown) [Ex 1.304] | 3.91 | 1.62
CO[C@@H]1[C@@H](n2cc(-c3cccc4ccccc34)nn2)[C@@H](O)[C@@H](CO)O[C@@H]1CC1CC(C2CCN(C(=O)OC(C)(C)C)CC2)=NO1 (stereo partly shown) [Ex 1.305] | 1.18 | 1.86
CO[C@@H]1[C@@H](n2cc(-c3cc(F)c(F)c(F)c3)nn2)[C@@H](O)[C@@H](CO)O[C@@H]1Cc1cc(C)no1 [Ex 1.306] | 6.19 | 1.22
CCc1cc(C[C@H]2O[C@H](CO)[C@H](O)[C@H](n3cc(-c4cc(F)c(F)c(F)c4)nn3)[C@H]2OC)on1 [Ex 1.307] | 7.22 | 0.67
CO[C@@H]1[C@@H](n2cc(-c3cc(F)c(F)c(F)c3)nn2)[C@@H](O)[C@@H](CO)O[C@@H]1Cc1cc(C(C)C)no1 [Ex 1.308] | 2.37 | 0.18
CCOC(C)(C)c1cc(C[C@H]2O[C@H](CO)[C@H](O)[C@H](n3cc(-c4cc(F)c(F)c(F)c4)nn3)[C@H]2OC)on1 [Ex 1.309] | 2.74 | 0.69
CO[C@@H]1[C@@H](n2cc(-c3ccccc3)nn2)[C@@H](O)[C@@H](CO)O[C@@H]1CC1CC(C2CCN(C(=O)OC(C)(C)C)CC2)=NO1 (stereo partly shown) [Ex 1.310] | 0.48 | 3.62
CO[C@@H]1[C@@H](n2cc(-c3nc(Br)cs3)nn2)[C@@H](O)[C@@H](CO)O[C@@H]1CC1CC(C2CCN(C(=O)OC(C)(C)C)CC2)=NO1 (stereo partly shown) [Ex 1.311] | 0.065 | 2.38
